Assay [1] has as its system H. pylori, ATCC 43504. Description: Antibacterial power test, Columbia agar, MIC. The assay is classed as cell-based, Helicobacter pylori. The conditions noted are these: 37° C., pH 7.0, 3 days, read on 4th day. As to the method:
An in vitro test was performed in a Columbia agar medium using a standard strain of H. pylori, ATCC 43504. […] Each of the test objects was dissolved in a 1% DMSO solution. Furthermore, as antibiotic control drugs, ampicillin from the penicillin family (control drug 1), gentamycin from the aminoglycoside family (control drug 2), tetracycline from the tetracycline family (control drug 3), and ofloxacin from the new quinolone family (control drug 4) were used.

Assay [2] has as its system Escherichia coli (ATCC 10536). Description: In vitro antibacterial test against various bacteria, MIC. The assay is classed as cell-based. The conditions noted are these: 37° C., 20 to 48 hours. As to the method: (§1) An in vitro antibacterial test for the compounds of Examples 1 to 6 against various bacteria was performed. As gram-negative bacteria, Escherichia coli (ATCC 10536, ATCC 25922), Klebsiella pneumonia (ATCC 10031), Proteus vulgaris (ATCC 13315), Pseudomonas aeruginosa (ATCC 9027), Salmonella typhimurium (ATCC 13311), and as gram-positive bacteria, Staphylococcus aureus, MRSA (ATCC 33591), Staphylococcus epidermidis (ATCC 12228), Streptococcus pneumonia (ATCC 6301), Mycobacterium ranae (ATCC 110) and Enterococcus faecalis (VRE, ATCC 51575) were used. The various bacteria were cultured at 37° C. for 20 to 48 hours by conventional methods, and the minimum inhibitory concentrations (MIC, μg/ml) were determined. Each of the test objects were dissolved in a 1% DMSO solution. Furthermore, as an antibiotic control drug, gentamycin (GEM) from the aminoglycoside family was used.

The subject of assay [3] is Escherichia coli (ATCC 25922). Described as above. Conditions: 37° C., 20 to 48 hours. The assay is classed as cell-based. As to the method: as §1
Assay [4] concerns Klebsiella pneumonia (ATCC 10031). Described as above. In kind it is cell-based. The conditions noted are these: 37° C., 20 to 48 hours. As to the method:
as §1

For assay [5], the system named is Mycobacterium ranae (ATCC 110). The assay is described as above. In kind it is cell-based. The conditions noted are these: 37° C., 20 to 48 hours. As to the method: as §1
For assay [6], the system named is Proteus vulgaris (ATCC 13315). The assay is described as above. In kind it is cell-based. Conditions: 37° C., 20 to 48 hours. As to the method:
as §1

Assay [7] relates to Pseudomonas aeruginosa (ATCC 9027). The assay is described as above. The assay is classed as cell-based. Conditions: 37° C., 20 to 48 hours. As to the method:
as §1

Assay [8] deals with Salmonella typhimurium (ATCC 13311). Described as above. In kind it is cell-based. Conditions: 37° C., 20 to 48 hours. As to the method:
as §1

Assay [9] deals with Staphylococcus aureus, MRSA (ATCC 33591). The description is as above. In kind it is cell-based. The conditions noted are these: 37° C., 20 to 48 hours. As to the method: as §1
The subject of assay [10] is Staphylococcus epidermidis (ATCC 12228). The description is as above. The assay is classed as cell-based. The conditions noted are these: 37° C., 20 to 48 hours. As to the method:
as §1

The test system of assay [11] is various gram-negative bacteria and gram-positive bacteria. Kind of assay: In vitro antibacterial test against various bacteria, overall statement. The assay is classed as cell-based. Conditions: bacteria of Table 4. As to the method:
as §1

Take “gentamycin [Control Drug 2 (Gentamycin), reference compound]”: in assay [1], the “MIC, in vitro anti-Helicobacter pylori activity” value was determined as 0.3 µg/mL. Moreover, the MIC (commonly the lowest concentration found to suppress growth) in [2] came to 0.3 µg/mL; in assay [3] it was 1.0 µg/mL; in assay [4], 1.0 µg/mL; in [5] it was 0.3 µg/mL; in assay [6] it was 0.3 µg/mL; in assay [7], 0.3 µg/mL. For the same substance, the values for the MIC in assay [8], in assay [9] and in assay [10] were 1.0 µg/mL, 1.0 µg/mL and 0.1 µg/mL, respectively. Besides, the “antibacterial action against various gram-negative and gram-positive bacteria (in words)” value in assay [11] is on record as “strong antibacterial action”.

The values are drawn from patent US20090143438A1, “Novel Pyridine Derivative Having Anti-Helicobacter Pylori Activity” (Arigen Pharmaceuticals, Inc., priority 2006, published 2009).
